Holding throughout (format): functional
The species entered for test [1] is Rattus norvegicus. Briefly: In Vitro superoxide scavenging activity by the analysis of variance method at concentration of 2.0 x 10E4 M.
The species named for test [2] is Rattus norvegicus. Briefly: In Vitro superoxide scavenging activity at a concentration of 1.0 x 10E4 M.
The species entered for test [3] is Rattus norvegicus. Briefly: In Vitro superoxide scavenging activity by the analysis of variance method at concentration of 0.5 x 10E4 M.
Test [4] is filed under the species Rattus norvegicus. The experiment in a line: In Vitro superoxide scavenging activity by the analysis of variance method at concentration of 0.1 x 10E4 M.
In test [5] the test system is Rattus norvegicus. Briefly: Percentage inhibition of Carrageenan-induced rat paw edema at a concentration of 32 mg/kg.
Test [6] deals with Rattus norvegicus. The experiment in a line: Percentage inhibition of reverse passive Arthus reaction was reported at a concentration of 30 mg/kg.
The subject of test [7] is Rattus norvegicus. Briefly: The mean index of reverse passive Arthus reaction was calculated 3 h-postinjection at a concentration of 30 mg/kg.
Test [8] deals with Rattus norvegicus. The experiment in a line: Percentage inhibition of Carrageenan-induced rat paw edema at a concentration of 0.3 mg/kg.

As usually defined, the inhibition is how much of the control response was suppressed. High values mean a strong effect, low ones a weak effect. As to `Oc1ccc(-c2nn[nH]n2)cc1`, the inhibition in test [1] stood at 0%. As for `COc1ccc(-c2nnc(SCC(=O)O)n2-c2ccccc2)cc1`, the inhibition in test [2] is 0%. Take `O=C(O)CSc1nnc(-c2ccc(O)cc2)n1-c1ccccc1`: the inhibition in test [2] came out at 11.6%. `O=C(O)Cn1nnc(-c2ccc(O)cc2)n1` yielded an inhibition in test [2] of 0%. Same read-out and setting: the figure for `COc1ccc(-c2nnn(CC(=O)O)n2)cc1` is 0%.

On to `O=C(O)Cn1nnc(-c2ccc(O)c(O)c2)n1`, for which the values for the inhibition in test [3], in test [2] and in test [4] were 7.9%, 18.8% and 0%, respectively. As usually defined, the inhibition in vivo is the change of the read-out against control, counted positive when it falls. In the case of `CCCCC1C(=O)N(c2ccccc2)N(c2ccccc2)C1=O` [PHENYLBUTAZONE], the inhibition in vivo at 32 mg/kg in test [5] came to 47%. As for `O=C(O)CSc1nnc(-c2cc(O)c(O)c(O)c2)n1-c1ccccc1`, the inhibition in vivo at 32 mg/kg in test [5] came to 18%. Also, the inhibition in vivo at 30 mg/kg in test [6] is -28.2%. Further, in test [7], the Mean index is 52. Moreover, the inhibition came out at 22.1% in test [3], 65.7% in test [2] and 16.7% in test [4].

In the case of `Oc1cc(-c2nn[nH]n2)cc(O)c1O`, the inhibition in vivo at 32 mg/kg in test [5] stood at 6%. For the same molecule, the inhibition in vivo at 30 mg/kg in test [6] is -5%. Besides, the Mean index in test [7] is 42.6. Moreover, the inhibition in test [3] was determined as 48.4%; in test [2], 66.9%; in test [4] it was 16%. For `COc1ccc(-c2nn[nH]n2)cc1OC`, in test [2], the inhibition is 0%. In the case of `COc1cc(-c2nnc(SCC(=O)O)n2-c2ccccc2)cc(OC)c1OC`, the inhibition in test [2] was determined as 0%. The molecule `COc1ccc(-c2nnc(SCC(=O)O)n2-c2ccccc2)cc1OC` showed an inhibition in test [2] of 0%. Take `C[C@@H]1C[C@H]2[C@@H]3CCC4=CC(=O)C=C[C@]4(C)[C@@]3(F)[C@@H](O)C[C@]2(C)[C@@]1(O)C(=O)CO` [DEXAMETHASONE]: the inhibition in vivo at 0.3 mg/kg in test [8] came out at 69%. Consider `O=C(O)CSc1nnc(-c2ccc(O)c(O)c2)n1-c1ccccc1`, for which the inhibition in test [3] is 11.8%; in test [2], 21.5%; in test [4], 8.3%. In test [2], `O=C(O)CSc1nnc(-c2ccccc2)n1-c1ccccc1` registered an inhibition of 0%.

`COc1cc(-c2nnn(CC(=O)O)n2)cc(OC)c1OC`: the inhibition in test [2] is 0%. Same read-out and setting: the figure for `COc1cc(-c2nn[nH]n2)cc(OC)c1OC` is 0%. Take `Oc1ccc(-c2nn[nH]n2)cc1O`: the inhibition in test [3] amounted to 23%; in test [2], 37.5%; in test [4], 6.9%.

Regarding `O=C(O)Cn1nnc(-c2ccccc2)n1`, in test [2], the inhibition is 0%. In the case of `O=C(O)Cn1nnc(-c2cc(O)c(O)c(O)c2)n1`, in test [5], the inhibition in vivo at 32 mg/kg was determined as 14%. Further, the inhibition in vivo at 30 mg/kg in test [6] was -28.7%. For the same molecule, in test [7], the Mean index is 52. Also, the inhibition turned out to be 55.9% in test [3], 78% in test [2] and 15.3% in test [4]. Consider `c1ccc(-c2nnn[nH]2)cc1`, for which the inhibition in test [2] amounted to 0%. As for `COc1ccc(-c2nnn(CC(=O)O)n2)cc1OC`, in test [2], the inhibition is 0%. Same read-out and setting: with `COc1ccc(-c2nn[nH]n2)cc1` the figure was 0%.

The values above are taken from ChEMBL document CHEMBL1122529, “Synthesis of 5-aryl-2H-tetrazoles, 5-aryl-2H-tetrazole-2-acetic acids, and [(4-phenyl-5-aryl-4H-1,2,4-triazol-3-yl)thio]acetic acids as possible superoxide scavengers and antiinflammatory agents” (1984).
